{"source": "paper PMC10891214", "about": "“Effects of food and ethnicity on the pharmacokinetics of venadaparib, a next-generation PARP inhibitor, in healthy Korean, Caucasian, and Chinese male subjects” (Investigational New Drugs, 2023)", "origin": "cited, not measured here", "tested_on": "patient-derived xenograft", "design": "method as in PMID 36808277", "conditions": "patient-derived xenograft mouse model; cited from earlier work"}
{"compound": "O=C(c1cc(Cc2n[nH]c(=O)c3ccccc23)ccc1F)N1CCN(C(=O)C2CC2)CC1", "note": "[olaparib, reference compound]", "values": [{"measurement": "Tumor growth inhibition rate", "result": 118.2, "unit": "%"}]}
